Source: US20190330226A1, “POSITIVE ALLOSTERIC MODULATORS OF THE MUSCARINIC ACETYLCHOLINE RECEPTOR M1” (Vanderbilt University, priority 2018, published 2019)

Molecular target: T1, human mAChR M1 (Homo sapiens, UniProt P11229)
T1 construct: host or cells: CHO-K1 (ATCC), stably transfected using Lipofectamine 2000
T1 sequence (P11229 1-460): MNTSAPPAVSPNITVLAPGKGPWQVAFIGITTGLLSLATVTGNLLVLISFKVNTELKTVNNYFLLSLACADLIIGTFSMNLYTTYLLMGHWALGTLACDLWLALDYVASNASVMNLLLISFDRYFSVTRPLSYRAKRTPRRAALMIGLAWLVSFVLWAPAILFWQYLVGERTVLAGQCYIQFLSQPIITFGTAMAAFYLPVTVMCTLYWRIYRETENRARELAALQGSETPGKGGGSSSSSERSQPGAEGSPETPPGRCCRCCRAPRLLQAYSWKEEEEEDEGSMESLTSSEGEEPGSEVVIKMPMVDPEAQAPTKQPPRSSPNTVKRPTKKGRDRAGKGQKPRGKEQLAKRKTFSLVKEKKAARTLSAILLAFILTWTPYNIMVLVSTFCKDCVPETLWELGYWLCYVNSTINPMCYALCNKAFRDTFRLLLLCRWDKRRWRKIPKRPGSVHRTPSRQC
Experiment: mAChR M1 cell-based functional assay (calcium mobilization, Fluo-4, FDSS)
Conditions: CHO-K1 cells stably expressing hM1, calcium flux; for Emax: PAM mode with EC20 acetylcholine; for EC50: concentration-dependent increase in the EC20 acetylcholine response
Excerpt: Chinese hamster ovary (CHO-K1) cells stably expressing rat (r)M1 were purchased from the American Type Culture Collection and cultured according to their indicated protocol. CHO cells stably expressing human (h)M2, hM3, and hM5 were described previously (Levey, et al., 1991); hM1 and hM4 cDNAs were purchased from Missouri S&T cDNA Resource; rM4 cDNA was provided by T. I. Bonner (National Institutes of Health, Bethesda, Md.). rM2 and rM3 were cloned from a rat brain cDNA library and sequence verified. hM1, rM2, rM3, hM4, and rM4 cDNAs were used to stably transfect CHO-K1 cells purchased from the American Type Culture Collection using Lipofectamine 2000. To make stable rM2, hM2, rM3, hM4, and rM4 cell lines for use in calcium mobilization assays, these cells also were stably transfected with a chimeric G-protein (Gqi5) (provided by B. R. Conklin, University of California, San Francisco) using Lipofectamine 2000. rM1, hM1, rM3, hM3, rM5, and hM5 cells were grown in Ham's F-12 medium containing 10% heat-inactivated fetal bovine serum (FBS), 20 mM HEPES, and 50 µg/mL G418 sulfate. rM2-Gqi5, hM2-Gqi5, and hM4-Gqi5 cells were grown in the same medium also containing 500 μg/mL Hygromycin B. Stable rM4-Gqi5 cells were grown in DMEM containing 10% heat-inactivated FBS, 20 mM HEPES, 400 μg/mL G418 sulfate, and 500 μg/mL Hygromycin B.
For high throughput measurement of agonist-evoked increases in intracellular calcium, CHO-K1 cells stably expressing muscarinic receptors were plated in growth medium lacking G418 and hygromycin at 15,000 cells/20 μL/well in Greiner 384-well black-walled, tissue culture (TC)-treated, clear-bottom plates (VWR). Cells were incubated overnight at 37° C. and 5% CO2. The next day, cells were washed using an ELX 405 (BioTek) with four washes ([…]) of assay buffer then aspirated to 20 μL. Next, 20 μL of 16 μM Fluo-4/acetoxymethyl ester (Invitrogen, Carlsbad, Calif.) prepared as a 2.3 mM stock in DMSO and mixed in a 1:1 ratio with 10% (w/v) Pluronic F-127 and diluted in assay buffer was added to the wells and the cell plates were incubated for 50 min at 37° C. and 5% CO2. Dye was removed by washing with the ELX 405 (four 80 μL washes of assay buffer) then aspirated to 20 μL. Compound master plates were formatted in an 11 point CRC format (1:3 dilutions) in 100% DMSO with a starting concentration of 10 mM using the BRAVO liquid handler (Agilent). Test compound CRCs were then transferred to daughter plates (240 nL) using the Echo acoustic plate reformatter (Labcyte, Sunnyvale, Calif.) and then diluted into assay buffer (40 μL) to a 2× stock using a Thermo Fisher Combi (Thermo Fisher Scientific, Waltham, Mass.).
Calcium flux was measured using the Functional Drug Screening System (FDSS) 6000 (Hamamatsu Corporation, Tokyo, Japan) as an increase in the fluorescent static ratio. Compounds were applied to cells (20 μL, 2×) using the automated system of the FDSS 6000 at 4 s into the 300 s protocol and the data were collected at 1 Hz. At 144 s into the 300s protocol, 10 μL of an EC20 concentration of the muscarinic receptor agonist acetylcholine was added (5×), followed by the addition of 12 μL an EC80 concentration of acetylcholine at the 230 s time point (5×). Agonist activity was analyzed as a concentration-dependent increase in calcium mobilization upon compound addition. Positive allosteric modulator activity was analyzed as a concentration-dependent increase in the EC20 acetylcholine response. Antagonist activity was analyzed as a concentration-dependent decrease in the EC80 acetylcholine response. Concentration-response curves were generated using a four-parameter logistical equation in XLfit curve fitting software (IDBS, Bridgewater, N.J.) for Excel (Microsoft, Redmond, Wash.) or Prism (GraphPad Software, Inc., San Diego, Calif.).
Activity (EC50 and Emax) was determined in the mAChR M1 cell-based functional assay as described above and the data are shown in Table 2. […]

| Compound | Emax [%] | EC50 [µM] |
| --- | --- | --- |
| Cc1nn(C)cc1-c1cc(F)c(CN2Cc3cnn(CC4CCCO4)c3C2=O)c(F)c1 (centres unmarked) [Compound 37, 5-(4-(1,3-dimethyl-1H-pyrazol-4-yl)-2,6-difluorobenzyl)-1-((tetrahydrofuran-2-yl)methyl)-4,5-dihydropyrrolo[3,4-c]pyrazol-6(1H)-one] | 77 | 3.22 |
| O=C1c2c(ccn2CC2CCCO2)CN1Cc1c(F)cc(-c2ccc3nccn3c2)cc1F (centres unmarked) [Compound 52, 5-(2,6-difluoro-4-(imidazo[1,2-a]pyridin-6-yl)benzyl)-1-((tetrahydrofuran-2-yl)methyl)-4,5-dihydropyrrolo[3,4-b]pyrrol-6(1H)-one] | 33 | 2.15 |
| Cn1cc2cc(-c3cc(F)c(CN4Cc5scc(Br)c5C4=O)c(F)c3)ccc2n1 [Compound 33, 3-bromo-5-(2,6-difluoro-4-(2-methyl-2H-indazol-5-yl)benzyl)-5,6-dihydro-4H-thieno[2,3-c]pyrrol-4-one] | 56 | 2.23 |
| COc1ccc(Cn2ncc3c2C(=O)N(Cc2c(F)cc(-c4cccc5nn(C)cc45)cc2F)C3)cc1 [Compound 6.1, 5-(2,6-difluoro-4-(2-methyl-2H-indazol-4-yl)benzyl)-1-(4-methoxybenzyl)-4,5-dihydropyrrolo[3,4-c]pyrazol-6(1H)-one] | 45 | 4.37 |
| Cc1n[nH]c2ccc(-c3cc(F)c(CN4Cc5sccc5C4=O)c(F)c3)cc12 [Compound 28, 5-(2,6-difluoro-4-(3-methyl-1H-indazol-5-yl)benzyl)-5,6-dihydro-4H-thieno[2,3-c]pyrrol-4-one] | 57 |  |
| Cn1cc(-c2cc(F)c(CN3Cc4occc4C3=O)c(F)c2)cn1 [Compound 58, 5-(2,6-difluoro-4-(1-methyl-1H-pyrazol-4-yl)benzyl)-5,6-dihydro-4H-furo[2,3-c]pyrrol-4-one] | 78 |  |
| O=C1c2scnc2CN1Cc1c(F)cc(-c2ccc3nccn3c2)cc1F [Compound 15, 5-(2,6-difluoro-4-(imidazo[1,2-a]pyridin-6-yl)benzyl)-4,5-dihydro-6H-pyrrolo[3,4-d]thiazol-6-one] | 55 |  |
| Cn1cc2c(-c3cc(F)c(CN4Cc5ccn(CC6CCCO6)c5C4=O)c(F)c3)cccc2n1 (centres unmarked) [Compound 49, 5-(2,6-difluoro-4-(2-methyl-2H-indazol-4-yl)benzyl)-1-((tetrahydrofuran-2-yl)methyl)-4,5-dihydropyrrolo[3,4-b]pyrrol-6(1H)-one] | 60 | 6.45 |
| Cn1cc(-c2cc(F)c(CN3Cc4ccn(CC5CCCO5)c4C3=O)c(F)c2)cn1 (centres unmarked) [Compound 50, 5-(2,6-difluoro-4-(1-methyl-1H-pyrazol-4-yl)benzyl)-1-((tetrahydrofuran-2-yl)methyl)-4,5-dihydropyrrolo[3,4-b]pyrrol-6(1H)-one] | 38 | 3.44 |
| Cn1cc2c(-c3cc(F)c(CN4Cc5nc[nH]c5C4=O)c(F)c3)cccc2n1 [Compound 3, 5-(2,6-difluoro-4-(2-methyl-2H-indazol-4-yl)benzyl)-5,6-dihydropyrrolo[3,4-d]imidazol-4(3H)-one] | 78 |  |
| Cn1cc2cccc(-c3cc(F)c(CN4Cc5occc5C4=O)c(F)c3)c2n1 [Compound 60, 5-(2,6-difluoro-4-(2-methyl-2H-indazol-7-yl)benzyl)-5,6-dihydro-4H-furo[2,3-c]pyrrol-4-one] | 50 |  |
| Cn1cc(-c2cc(F)c(CN3Cc4cn(CC5CCCO5)nc4C3=O)c(F)c2)cn1 (centres unmarked) [Compound 34, 5-(2,6-difluoro-4-(1-methyl-1H-pyrazol-4-yl)benzyl)-2-((tetrahydrofuran-2-yl)methyl)-4,5-dihydropyrrolo[3,4-c]pyrazol-6(2H)-one] | 35 |  |
| Cn1cnc2ccc(-c3cc(F)c(CN4Cc5sccc5C4=O)c(F)c3)cc21 [Compound 27, 5-(2,6-difluoro-4-(1-methyl-1H-benzo[d]imidazol-6-yl)benzyl)-5,6-dihydro-4H-thieno[2,3-c]pyrrol-4-one] | 60 | 2.87 |
| CCn1ccc2c1C(=O)N(Cc1c(F)cc(-c3cccc4nn(C)cc34)cc1F)C2 [Compound 53, 5-(2,6-difluoro-4-(2-methyl-2H-indazol-4-yl)benzyl)-1-ethyl-4,5-dihydropyrrolo[3,4-b]pyrrol-6(1H)-one] | 63 |  |
| Cn1cc2c(-c3cc(F)c(CN4Cc5cn(CCO)nc5C4=O)c(F)c3)cccc2n1 [Compound 25, 5-(2,6-difluoro-4-(2-methyl-2H-indazol-4-yl)benzyl)-2-(2-hydroxyethyl)-4,5-dihydropyrrolo[3,4-c]pyrazol-6(2H)-one] | 74 | 9.15 |
| Cn1cc(-c2ccc(CN3Cc4sccc4C3=O)cc2)nn1 [Compound 48, 5-(4-(1-methyl-1H-1,2,3-triazol-4-yl)benzyl)-5,6-dihydro-4H-thieno[2,3-c]pyrrol-4-one] | 33 |  |
| Cn1cc(-c2ccc(CN3Cc4ccsc4C3=O)c(F)c2)cn1 [Compound 32, 5-(2-fluoro-4-(1-methyl-1H-pyrazol-4-yl)benzyl)-4,5-dihydro-6H-thieno[2,3-c]pyrrol-6-one] | 67 | 4.9 |
| Cn1cc2c(-c3cc(F)c(CN4Cc5ccn(CC6CCOCC6)c5C4=O)c(F)c3)cccc2n1 [Compound 55, 5-(2,6-difluoro-4-(2-methyl-2H-indazol-4-yl)benzyl)-1-((tetrahydro-2H-pyran-4-yl)methyl)-4,5-dihydropyrrolo[3,4-b]pyrrol-6(1H)-one] | 59 | 8.98 |
| Cn1cc2c(-c3cc(F)c(CN4Cc5cnn(CC6CCCO6)c5C4=O)c(F)c3)cccc2n1 (centres unmarked) [Compound 16, 5-(2,6-difluoro-4-(2-methyl-2H-indazol-4-yl)benzyl)-1-((tetrahydrofuran-2-yl)methyl)-4,5-dihydropyrrolo[3,4-c]pyrazol-6(1H)-one] | 93 | 0.92 |
| Cn1cc2c(-c3ccc(CN4Cc5sccc5C4=O)c(F)c3)cccc2n1 [Compound 40, 5-(2-fluoro-4-(2-methyl-2H-indazol-4-yl)benzyl)-5,6-dihydro-4H-thieno[2,3-c]pyrrol-4-one] | 67 | 3.97 |
| Cn1cc2cc(-c3cc(F)c(CN4Cc5ncsc5C4=O)c(F)c3)ccc2n1 [Compound 22, 5-(2,6-difluoro-4-(2-methyl-2H-indazol-5-yl)benzyl)-4,5-dihydro-6H-pyrrolo[3,4-d]thiazol-6-one] | 28 | 0.37 |
| COCCn1cc2c(n1)C(=O)N(Cc1c(F)cc(-c3cccc4nn(C)cc34)cc1F)C2 [Compound 19, 5-(2,6-difluoro-4-(2-methyl-2H-indazol-4-yl)benzyl)-2-(2-methoxyethyl)-4,5-dihydropyrrolo[3,4-c]pyrazol-6(2H)-one] | 45 |  |
